We go through 19 compounds from patent US7064120B2, “Tricyclic pyridyl carboxamides and derivatives thereof tocolytic oxytocin receptor antagonists” (Wyeth, priority 2001, dated 2006).

A word on the inhibition: it is the share of the control response that was lost under treatment.

In one experiment the target is T1, human oxytocin receptor (Homo sapiens, UniProt P30559).
T1 construct: host or cells: CHO cells, stably transfected (pcDNA3.1 vector)
T1 sequence (P30559 1-389): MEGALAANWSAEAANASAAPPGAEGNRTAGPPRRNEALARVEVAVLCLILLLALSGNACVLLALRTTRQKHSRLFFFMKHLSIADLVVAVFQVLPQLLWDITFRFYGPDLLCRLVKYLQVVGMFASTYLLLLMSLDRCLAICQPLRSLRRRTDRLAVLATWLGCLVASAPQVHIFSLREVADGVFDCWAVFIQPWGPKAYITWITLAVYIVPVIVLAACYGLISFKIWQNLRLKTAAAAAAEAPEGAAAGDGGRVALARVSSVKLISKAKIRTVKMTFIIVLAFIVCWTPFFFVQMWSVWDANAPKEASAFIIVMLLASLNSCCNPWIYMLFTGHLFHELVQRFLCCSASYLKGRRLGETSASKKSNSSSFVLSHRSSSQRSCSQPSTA
Nature of the experiment: Oxytocin binding in CHO cell membranes expressing human oxytocin receptors ([3H]oxytocin radioligand binding). The note with it: 100 nM. As for the experimental part:
Oxytocin Binding in Chinese Hamster Ovary Cell Membranes Expressing Human Oxytocin Receptors
Cell Culture medium (e.g. 30 mL for 1:30 split) is immediately added and mixed well to inactivate trypsin. 1 mL of detached cells is added to new culture flasks containing fresh Cell Culture medium (e.g. into 25 mL per T-150 flask), and mixed gently. The cells are incubated at 37° C. in 5% CO2. The medium is changed at 3 to 4 days interval (or as appropriate). […] All steps are done under sterile conditions.
The cells are washed twice gently with Hank's Balanced Salt solution (e.g., use 10 mL per T-150 flask). […] The contents are transferred to centrifuge tubes (50 mL size) kept in ice bath. All subsequent steps are done at 4° C. The tubes are centrifuged at 300×g for 15 min (1380 rpm on SORVAL, Model RT6000D, using rotor for 50 mL tubes). The supernatant is discarded and the cells suspended in homogenizing buffer (10 mM Tris-HCl containing 0.25 M sucrose and 1 mM EDTA, pH 7.4) ensuring that the volume of the buffer is about ten times the volume of the cell pellet. The cells are pooled into a centrifuge tube (50 mL) and homogenized with a Polytron at setting 6 for 10 sec. The homogenate is transferred into a Potter-Elvjehm homogenizer and homogenized with 3 strokes. The homogenate is centrifuged at 1500×g for 10 min at 4° C. (3100 rpm using SORVAL, model RT6000D, using a rotor for 50 mL tubes). The pellet is discarded. The supernatant is centrifuged at 100,000×g for 60 min. at 4° C. (Beckman L8-80M ultracentrifuge; spin at 37,500 rpm with rotor type 70 Ti for 50 mL tubes; 38,000 rpm with rotor type 8OTi for 15 mL tubes; or 35,800 rpm with rotor type 45Ti). The supernantant is discarded and the pellet suspended in 3 to 4 mL of Tris buffer (50 mM TRIS-HCl, pH 7.4). The protein content is estimated by the Bradford or Lowry method. The volume of the membrane suspension is adjusted with the membrane buffer (50 mM Tris-HCl containing 0.1% BSA and 0.1 mM PMSF) to give 3.0 mg/mL (or as appropriate) of protein. The membranes are aliquoted and stored at −70° C.
In wells of a 96-well format microtiter plate, is added 90, 110 or 130 μL (to make up a final volume of 200 μL) of assay buffer containing 50 mM of Tris-HCl (pH 7.4), […], 1 mg % aprotinin, 1 mg % leupeptin, 2 mg % 1,10-phenanthroline, 10 mg % trypsin inhibitor, and 0.1 mM PMSF. The inhibitors are added on the day of the experiment. The components are mixed at room temperature, and then kept in ice bath following adjustment of the pH to 7.4. […] For oxytocin and other peptide ligands, 20 μL of 50% DMSO is added and the assay buffer volume is adjusted accordingly. To each well is added 50 μL of frozen membrane suspension thawed immediately prior to use and diluted in assay buffer to the required concentration (equivalent to 25 to 50 μg of protein/well as needed). 20 μL of 8 nM [^3H]oxytocin in the assay buffer, prepared just before use is added and incubated at room temperature for 60 min. shaking the plate on a mechanical shaker for the first 15 min. The incubation is stopped by rapid filtration of the plate contents followed by washing with ice-cold buffer (50 mM Tris-HCl, pH 7.4) using a cell harvester (Tomtek and Printed filtermat-B filter paper). The filter paper is thoroughly dried (7–12 min. in a microwave oven) and impregnated with MeltiLex B/H melt-on scintillation wax sheets and the radioactivity counted in a betaplate scintillation counter.
Binding data is either reported as percent inhibition at a certain concentration or if an IC50 was calculated, as a nanomolar concentration.
For the compound `Cc1cc(C(=O)N2Cc3ccc(C(=O)NCCc4ccccn4)n3Cc3ccccc32)ccc1-c1ccccc1C(F)(F)F` [Example 61, 10-{[2-Methyl-2′-trifluoromethyl=[1,1′-biphenyl]-4-yl]carbonyl}-N-[2-(2-pyridinyl)ethyl]-10,11-dihydro-5H-pyrrolo[2,1-c][1,4]benzodiazepine-3-carboxamide], the “OT % inhibition @ 100 nM” value was 26%.
Regarding `COc1cc(C(=O)N2Cc3ccc(C(=O)N4CCN(c5ccccn5)CC4)n3Cc3ccccc32)ccc1-c1cccc2ccccc12` [Example 83], the “OT % inhibition @ 100 nM” value was found to be 30%.
As for `COc1cccc(-c2ccc(C(=O)N3Cc4ccc(C(=O)NCc5ccncc5)n4Cc4ccccc43)cc2OC)c1` [Example 98], the “OT % inhibition @ 100 nM” value is given as 39%.
Regarding `COc1cccc(-c2ccc(C(=O)N3Cc4ccc(C(=O)N(C)Cc5cccnc5)n4Cc4ccccc43)cc2OC)c1` [Example 110], the “OT % inhibition @ 100 nM” value worked out at 94%.

The experiment is the same for the next values; noted with them: 100 nM, read-out: OT % inhibition @ 100 nM.
For the compound `Cc1ccccc1-c1ccc(C(=O)N2Cc3ccc(C(=O)NCCc4ccccn4)n3Cc3ccccc32)cc1` [Example 53, 10-[(2′-Methyl-[1,1′-biphenyl]-4-yl)carbonyl]-N-[2-(2-pyridinyl)ethyl]-10,11-dihydro-5H-pyrrolo[2,1-c][1,4]benzodiazepine-3-carboxamide], the inhibition at 0.1 µM came to 6%.
`COc1cc(C(=O)N2Cc3ccc(C(=O)NCCc4ccccn4)n3Cc3ccccc32)ccc1-c1ccccc1C` [Example 54, 10-[(2-Methoxy-2′-methyl-[1,1′-biphenyl]-4-yl)carbonyl]-N-[2-(2-pyridinyl)ethyl]-10,11-dihydro-5H-pyrrolo[2,1-c][1,4]benzodiazepine-3-carboxamide]: the inhibition at 0.1 µM was 55%.
Turning to `COc1cc(-c2ccccc2C)c(Cl)cc1C(=O)N1Cc2ccc(C(=O)NCCc3ccccn3)n2Cc2ccccc21` [Example 55, 10-[(6-Chloro-3-methoxy-2′-methyl-[1,1′-biphenyl]-4-yl)carbonyl]-N-[2-(2-pyridinyl)ethyl]-10,11-dihydro-5H-pyrrolo[2,1-c][1,4]benzodiazepine-3-carboxamide], the inhibition at 0.1 µM stood at 50%.
As to `COc1cccc(-c2cc(OC)c(C(=O)N3Cc4ccc(C(=O)NCCc5ccccn5)n4Cc4ccccc43)cc2Cl)c1` [Example 56, 10-[(6-Chloro-3,3′-dimethoxy-[1,1′-biphenyl]-4-yl)carbonyl]-N-[2-(2-pyridinyl)ethyl]-10,11-dihydro-5H-pyrrolo[2,1-c][1,4]benzodiazepine-3-carboxamide], the inhibition at 0.1 µM is 31%.
As to `COc1cc(C(=O)N2Cc3ccc(C(=O)NCCc4ccccn4)n3Cc3ccccc32)ccc1-c1cccc2ccccc12` [Example 57, 10-[3-Methoxy-4-(naphthalen-1-yl)benzoyl]-N-[2-(2-pyridinyl)ethyl]-10,11-dihydro-5H-pyrrolo[2,1-c][1,4]benzodiazepine-3-carboxamide], the inhibition at 0.1 µM was determined as 32%.
`COc1ccccc1-c1ccc(C(=O)N2Cc3ccc(C(=O)NCCc4ccccn4)n3Cc3ccccc32)cc1OC` [Example 58, 10-[(2,2′-Dimethoxy-[1,1′-biphenyl]-4-yl)carbonyl]-N-[2-(2-pyridinyl)ethyl]-10,11-dihydro-5H-pyrrolo[2,1-c][1,4]benzodiazepine-3-carboxamide]: the inhibition at 0.1 µM came out at 37%.
Same read-out and setting: the value for `COc1cccc(-c2ccc(C(=O)N3Cc4ccc(C(=O)NCCc5ccccn5)n4Cc4ccccc43)cc2OC)c1` [Example 59, 10-[(2,3′-Dimethoxy-[1,1′-biphenyl]-4-yl)carbonyl]-N-[2-(2-pyridinyl)ethyl]-10,11-dihydro-5H-pyrrolo[2,1-c][1,4]benzodiazepine-3-carboxamide] was 40%.
On to `O=C(NCCc1ccccn1)c1ccc2n1Cc1ccccc1N(C(=O)c1ccc(-c3cccc4ccccc34)cc1Cl)C2` [Example 60, 10-[2-Chloro-4-(naphthalen-1-yl)benzoyl]-N-[2-(2-pyridinyl)ethyl]-10,11-dihydro-5H-pyrrolo[2,1-c][1,4]benzodiazepine-3-carboxamide], for which the inhibition at 0.1 µM was 11%.
As to `COc1ccccc1-c1ccc(C(=O)N2Cc3ccc(C(=O)N(C)CCc4ccccn4)n3Cc3ccccc32)cc1OC` [Example 64, 10-[(2,2′-Dimethoxy-[1,1′-biphenyl]-4-yl)carbonyl]-N-methyl-N-[2-(2-pyridinyl)ethyl]-10,11-dihydro-5H-pyrrolo[2,1-c][1,4]benzodiazepine-3-carboxamide], the inhibition at 0.1 µM came out at 91%.
`COc1cc(C(=O)N2Cc3ccc(C(=O)N(C)Cc4cccnc4)n3Cc3ccccc32)ccc1-c1ccccc1C` [Example 106, 10-[(2-Methoxy-2′-methyl-[1,1′-biphenyl]-4-yl)carbonyl]-N-methyl-N-(3-pyridinylmethyl)-10,11-dihydro-5H-pyrrolo[2,1-c][1,4]benzodiazepine-3-carboxamide]: the inhibition at 0.1 µM amounted to 98%.
In the case of `COc1cc(-c2ccccc2C)c(Cl)cc1C(=O)N1Cc2ccc(C(=O)N(C)Cc3cccnc3)n2Cc2ccccc21` [Example 107, 10-[(6-Chloro-3-methoxy-2′-methyl-[1,1′-biphenyl]-4-yl)carbonyl]-N-methyl-N-(3-pyridinylmethyl)-10,11-dihydro-5H-pyrrolo[2,1-c][1,4]benzodiazepine-3-carboxamide], the inhibition at 0.1 µM is 92%.
Consider `COc1cccc(-c2cc(OC)c(C(=O)N3Cc4ccc(C(=O)N(C)Cc5cccnc5)n4Cc4ccccc43)cc2Cl)c1` [Example 108, 10-[(6-Chloro-3,3′-dimethoxy-[1,1′-biphenyl]-4-yl)carbonyl]-N-methyl-N-(3-pyridinylmethyl)-10,11-dihydro-5H-pyrrolo[2,1-c][1,4]benzodiazepine-3-carboxamide], for which the inhibition at 0.1 µM came to 83%.
Turning to `COc1cc(C(=O)N2Cc3ccc(C(=O)N(C)Cc4cccnc4)n3Cc3ccccc32)ccc1-c1cccc2ccccc12` [Example 109, 10-[3-Methoxy-4-(naphthalen-1-yl)benzoyl]-N-methyl-N-(3-pyridinylmethyl)-10,11-dihydro-5H-pyrrolo[2,1-c][1,4]benzodiazepine-3-carboxamide], the inhibition at 0.1 µM came to 70%.
Regarding `CN(Cc1cccnc1)C(=O)c1ccc2n1Cc1ccccc1N(C(=O)c1ccc(-c3cccc4ccccc34)cc1Cl)C2` [Example 111, 10-[2-Chloro-4-(naphthalen-1-yl)benzoyl]-N-methyl-N-(3-pyridinylmethyl)-10,11-dihydro-5H-pyrrolo[2,1-c][1,4]benzodiazepine-3-carboxamide], the inhibition at 0.1 µM came out at 36%.
Regarding `Cc1ccccc1-c1ccc(C(=O)N2Cc3ccc(C(=O)N4CCN(c5ccncc5)CC4)n3Cc3ccccc32)cc1C` [Example 114, {10-[(2,2′-Dimethyl-[1,1′-biphenyl]-4-yl)carbonyl]-10,11-dihydro-5H-pyrrolo[2,1-c][1,4]benzodiazepin-3-yl}[4-(4-pyridinyl)-1-piperazinyl]methanone], the inhibition at 0.1 µM amounted to 94%.
